Laboratory results taken from patent US20090098130A1, “GLUCAGON-LIKE PROTEIN-1 RECEPTOR (GLP-1R) AGONIST COMPOUNDS” (priority 2007, published 2009).
Non-standard residues stand in square brackets, D forms with d. Residues, ends and D or L forms follow the SMILES beside them. Aib = CC(C)(N)C(=O)O

Tests used:
[1] = test system: pancreatic β cells; assay: glucose-stimulated insulin secretion (GSIS) assay; type: cell-based; conditions: GA targeting peptide; insulin secretion from pancreatic β cell cultures in vitro with glucose
Method: Briefly, glucose and GA targeting peptide was added at various concentrations to pancreatic β cell cultures, and insulin secretion was detected by measuring insulin levels over time. EC50 was calculated for each peptide.
The ability of these GA targeting agent-linker conjugates to stimulate […] secretion in vitro was measured using the GSIS assay described in Example 27. […] Each of these peptides contained a side-chain modified Lys residue according to the scheme illustrated in FIG. 30 at a different position.

[2] = target: h38C2; conditions: competition ELISA against immobilized BSA-conjugated β-diketone 1, read-out: apparent equilibrium dissociation constant; cited from earlier work
[3] = target: m38C2; conditions: competition ELISA against immobilized BSA-conjugated β-diketone 1, read-out: apparent equilibrium dissociation constant; cited from earlier work

Row | SMILES | EC50 [1] [µM] | Kd [2] [µM] | Kd [3] [µM]
1 | CC[C@H](C)[C@H](NC(=O)[C@H](Cc1ccccc1)NC(=O)[C@H](CCC(=O)O)NC(=O)[C@H](CCCCN)NC(=O)[C@@H](NC(=O)[C@H](C)NC(=O)[C@H](CCC(N)=O)NC(=O)[C@H](CCC(=O)O)NC(=O)[C@H](CCC(=O)O)NC(=O)[C@H](Cc1ccc(O)cc1)NC(=O)[C@H](Cc1ccc(O)cc1)NC(=O)[C@H](CO)NC(=O)[C@H](CO)NC(=O)[C@@H](NC(=O)[C@H](CC(=O)O)NC(=O)[C@H](CO)NC(=O)[C@@H](NC(=O)[C@H](Cc1ccccc1)NC(=O)[C@@H](NC(=O)CNC(=O)[C@H](CCC(=O)O)NC(=O)C(C)(C)NC(=O)[C@@H](N)Cc1c[nH]cn1)[C@@H](C)O)[C@@H](C)O)C(C)C)C(C)C)C(=O)N[C@@H](C)C(=O)N[C@@H](Cc1c[nH]c2ccccc12)C(=O)N[C@@H](CC(C)C)C(=O)N[C@H](C(=O)N[C@@H](CCCCN)C(=O)NC(C)(C)C(=O)N[C@@H](CCCNC(=N)N)C(N)=O)[C@@H](C)CC [SEQ ID NO: 59] (H-H[Aib]EGTFTSDVSSYYEEQAVKEFIAWLIK[Aib]R-NH2) | < 10 | – | –
2 | CC[C@H](C)[C@H](NC(=O)[C@H](Cc1ccccc1)NC(=O)[C@H](CCC(=O)O)NC(=O)[C@H](CCCCN)NC(=O)[C@@H](NC(=O)[C@H](C)NC(=O)[C@H](CCC(N)=O)NC(=O)[C@H](CCC(=O)O)NC(=O)[C@H](CCC(=O)O)NC(=O)[C@H](Cc1c[nH]c2ccccc12)NC(=O)[C@H](Cc1ccc(O)cc1)NC(=O)[C@H](CO)NC(=O)[C@H](CO)NC(=O)[C@@H](NC(=O)[C@H](CC(=O)O)NC(=O)[C@H](CO)NC(=O)[C@@H](NC(=O)[C@H](Cc1ccccc1)NC(=O)[C@@H](NC(=O)CNC(=O)[C@H](CCC(=O)O)NC(=O)C(C)(C)NC(=O)[C@@H](N)Cc1c[nH]cn1)[C@@H](C)O)[C@@H](C)O)C(C)C)C(C)C)C(=O)N[C@@H](C)C(=O)N[C@@H](Cc1c[nH]c2ccccc12)C(=O)N[C@@H](CC(C)C)C(=O)N[C@H](C(=O)N[C@@H](CCCCN)C(=O)NC(C)(C)C(=O)N[C@@H](CCCNC(=N)N)C(N)=O)[C@@H](C)CC [SEQ ID NO: 60] (H-H[Aib]EGTFTSDVSSYWEEQAVKEFIAWLIK[Aib]R-NH2) | < 10 | – | –
3 | CC[C@H](C)[C@H](NC(=O)[C@H](Cc1ccccc1)NC(=O)[C@H](CCC(=O)O)NC(=O)[C@H](CCCCN)NC(=O)[C@@H](NC(=O)[C@H](C)NC(=O)[C@H](CCC(N)=O)NC(=O)[C@H](CCC(=O)O)NC(=O)[C@H](CCC(=O)O)NC(=O)[C@H](CC(C)C)NC(=O)[C@H](Cc1ccc(O)cc1)NC(=O)[C@H](CO)NC(=O)[C@H](CO)NC(=O)[C@@H](NC(=O)[C@H](CC(=O)O)NC(=O)[C@H](CO)NC(=O)[C@@H](NC(=O)[C@H](Cc1ccccc1)NC(=O)[C@@H](NC(=O)CNC(=O)[C@H](CCC(=O)O)NC(=O)C(C)(C)NC(=O)[C@@H](N)Cc1c[nH]cn1)[C@@H](C)O)[C@@H](C)O)C(C)C)C(C)C)C(=O)N[C@@H](C)C(=O)N[C@@H](Cc1c[nH]c2ccccc12)C(=O)N[C@@H](CC(C)C)C(=O)N[C@H](C(=O)N[C@@H](CCCNC(=N)N)C(=O)NC(C)(C)C(=O)N[C@@H](CCCNC(=N)N)C(N)=O)[C@@H](C)CC [SEQ ID NO: 61] (H-H[Aib]EGTFTSDVSSYLEEQAVKEFIAWLIR[Aib]R-NH2) | < 10 | – | –
4 | CC[C@H](C)[C@H](NC(=O)[C@H](Cc1ccccc1)NC(=O)[C@H](CCC(=O)O)NC(=O)[C@H](CCCNC(=N)N)NC(=O)[C@@H](NC(=O)[C@H](C)NC(=O)[C@H](CCC(N)=O)NC(=O)[C@H](CCC(=O)O)NC(=O)[C@H](CCC(=O)O)NC(=O)[C@H](CC(C)C)NC(=O)[C@H](Cc1ccc(O)cc1)NC(=O)[C@H](CO)NC(=O)[C@H](CO)NC(=O)[C@@H](NC(=O)[C@H](CC(=O)O)NC(=O)[C@H](CO)NC(=O)[C@@H](NC(=O)[C@H](Cc1ccccc1)NC(=O)[C@@H](NC(=O)CNC(=O)[C@H](CCC(=O)O)NC(=O)C(C)(C)NC(=O)[C@@H](N)Cc1c[nH]cn1)[C@@H](C)O)[C@@H](C)O)C(C)C)C(C)C)C(=O)N[C@@H](C)C(=O)N[C@@H](Cc1c[nH]c2ccccc12)C(=O)N[C@@H](CC(C)C)C(=O)N[C@H](C(=O)N[C@@H](CCCNC(=N)N)C(=O)NC(C)(C)C(=O)N[C@@H](CCCNC(=N)N)C(N)=O)[C@@H](C)CC [SEQ ID NO: 62] (H-H[Aib]EGTFTSDVSSYLEEQAVREFIAWLIR[Aib]R-NH2) | < 10 | – | –
5 | CC(=O)CC(C)=O [β-diketone 2] | – | 7.6 | 38
6 | CC(=O)CC(=O)CCc1ccccc1 [β-diketone 3] | – | 1 | 0.43
